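Results reflect a 48-hour exposure of cells in 96-well plates to compound at five concentrations. Here, GI50 denotes the concentration required for 50% inhibition of growth.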 The source made the active and inactive calls. Rule as the data show it: active = GI50 up to about 1.1 µM and inactive = higher.
Experiments:
Assay in all cases: growth of human tumour cells (NCI), 48 h
MDA-MB-435 = system: MDA-MB-435
BT-549 = system: BT-549
SK-MEL-5 = system: SK-MEL-5
786-0 = system: 786-0
SN12C = system: SN12C
HCT-116 = system: HCT-116
SK-MEL-2 = system: SK-MEL-2
OVCAR-5 = system: OVCAR-5
U-251 = system: U-251
M14 = system: M14
UACC-62 = system: UACC-62
OVCAR-8 = system: OVCAR-8
DU-145 = system: DU-145
TK-10 = system: TK-10
SW-620 = system: SW-620
HCT-15 = system: HCT-15
T47D = system: T47D
SF-268 = system: SF-268
MCF7 = system: MCF7
RXF 393 = system: RXF 393
SNB-19 = system: SNB-19
PC-3 = system: PC-3
OVCAR-4 = system: OVCAR-4
CCRF-CEM = system: CCRF-CEM
IGROV-1 = system: IGROV-1
NCI/ADR-RES = system: NCI/ADR-RES
HOP-62 = system: HOP-62
RPMI-8226 = system: RPMI-8226
NCI-H460 = system: NCI-H460
NCI-H226 = system: NCI-H226
MOLT-4 = system: MOLT-4
SK-MEL-28 = system: SK-MEL-28
A498 = system: A498
ACHN = system: ACHN
COLO 205 = system: COLO 205
A549 = system: A549
Hs-578T = system: Hs-578T
EKVX = system: EKVX
UO-31 = system: UO-31
SK-OV-3 = system: SK-OV-3
SNB-75 = system: SNB-75
MDA-N = system: MDA-N
OVCAR-3 = system: OVCAR-3
HCC 2998 = system: HCC 2998
KM12 = system: KM12
HOP-92 = system: HOP-92
HT-29 = system: HT-29
NCI-H23 = system: NCI-H23
SF-295 = system: SF-295
CAKI-1 = system: CAKI-1
LOX IMVI = system: LOX IMVI
MDA-MB-231 = system: MDA-MB-231
UACC-257 = system: UACC-257
HL-60 = system: HL-60
Malme-3M = system: Malme-3M
K562 = system: K562
SF-539 = system: SF-539
NCI-H522 = system: NCI-H522
SR = system: SR

Measured: GI50

C/C(=N/c1[nH]c(=O)cc2c1C(=O)CC2)N(C)C
inactive: MDA-MB-435 > 200 µM | BT-549 > 200 µM | SK-MEL-5 > 200 µM | 786-0 > 200 µM | SN12C > 200 µM | HCT-116 > 200 µM | SK-MEL-2 > 200 µM | OVCAR-5 > 200 µM | U-251 > 200 µM | M14 > 200 µM | UACC-62 > 200 µM | OVCAR-8 > 200 µM | DU-145 > 200 µM | TK-10 > 200 µM | SW-620 > 200 µM | T47D > 200 µM | SF-268 > 200 µM | MCF7 > 200 µM | RXF 393 > 200 µM | SNB-19 > 200 µM | PC-3 > 200 µM | OVCAR-4 > 200 µM | CCRF-CEM > 200 µM | IGROV-1 > 200 µM | NCI/ADR-RES > 200 µM | HOP-62 > 200 µM | RPMI-8226 > 200 µM | NCI-H460 > 200 µM | NCI-H226 > 200 µM | MOLT-4 > 200 µM | SK-MEL-28 > 200 µM | A498 > 200 µM | ACHN > 200 µM | COLO 205 > 200 µM | A549 > 200 µM | Hs-578T > 200 µM | EKVX > 200 µM | UO-31 > 200 µM | SK-OV-3 > 200 µM | SNB-75 > 200 µM | MDA-N > 200 µM | OVCAR-3 > 200 µM | HCC 2998 > 200 µM | KM12 > 200 µM | HOP-92 > 200 µM | HT-29 > 200 µM | NCI-H23 > 200 µM | SF-295 > 200 µM | CAKI-1 > 200 µM | LOX IMVI > 200 µM | MDA-MB-231 > 200 µM | UACC-257 > 200 µM | HL-60 > 200 µM | Malme-3M > 200 µM | K562 > 200 µM | SF-539 > 200 µM | NCI-H522 > 200 µM
> 200 µM: HCT-15

Oc1ccc(-c2nc(-c3cccnc3)c(-c3ccc(Cl)cc3)[nH]2)cc1
inactive: MDA-MB-435 12.3 µM | BT-549 15.3 µM | SK-MEL-5 12.1 µM | 786-0 13.6 µM | SN12C 15.8 µM | HCT-116 13.4 µM | SK-MEL-2 18.2 µM | OVCAR-5 19.3 µM | U-251 14.3 µM | M14 13.1 µM | UACC-62 12.9 µM | OVCAR-8 14.8 µM | DU-145 14.3 µM | TK-10 13.3 µM | SW-620 14.6 µM | T47D 11.7 µM | SF-268 14.6 µM | MCF7 11.3 µM | RXF 393 13.3 µM | SNB-19 16.5 µM | PC-3 5.58 µM | OVCAR-4 11.2 µM | CCRF-CEM 1.79 µM | IGROV-1 10.9 µM | NCI/ADR-RES 14.5 µM | HOP-62 16.9 µM | RPMI-8226 3.47 µM | NCI-H460 11.1 µM | NCI-H226 18.8 µM | MOLT-4 2.52 µM | SK-MEL-28 16 µM | ACHN 14.5 µM | COLO 205 10.3 µM | A549 15.3 µM | Hs-578T 19.4 µM | EKVX 13.2 µM | UO-31 10.8 µM | SK-OV-3 13.6 µM | SNB-75 7.46 µM | MDA-N 12.6 µM | OVCAR-3 12.5 µM | HCC 2998 18.8 µM | KM12 11.9 µM | HT-29 15.2 µM | NCI-H23 13 µM | SF-295 14 µM | CAKI-1 17.9 µM | LOX IMVI 6.89 µM | MDA-MB-231 16.2 µM | SR 5.43 µM | UACC-257 16.1 µM | HL-60 6.95 µM | Malme-3M 13.5 µM | K562 10.5 µM | NCI-H522 10.3 µM
12.1 µM: HCT-15
